Results reported in patent publication US20090326064A1, “Pesticidal composition” (priority 2006, published 2009).

Experiments:
Assay type in all cases: physicochemical
[1] = Stability in general-use solvents; conditions: such as acidic or alkaline aqueous solutions
Vapor pressure = conditions: at 25° C.
[2] = Stability under solar light

In the case of CC=CC1C(C(=O)OCc2c(F)c(F)c(COC)c(F)c2F)C1(C)C (stereo not drawn) [Compound A, 2,3,5,6-tetrafluoro-4-methoxymethylbenzyl 1R-trans-3-(1-propenyl(E/Z=1/8))-2,2-dimethylcyclopropanecarboxylate], the “stability in various general-use solvents” value [1] is reported as “stable”, the vapor pressure (Vapor pressure) is reported as 1.96×10^−3 Pa and the “stability under solar light” value [2] is reported as “very stable”.
